# Experimental data reported in US20050113295A1, “Carboxamide and amino derivatives and methods of their use” (priority 2003, published 2005).
# Where a SMILES comes first, the peptide text is derived from it. [ ]: non-standard residue; d: D form. Phe(4-CONH2) = NC(=O)c1ccc(C[C@H](N)C(=O)O)cc1
# What was measured:
# [1] = target: T1, cloned human δ opioid receptor (Homo sapiens, UniProt P41143); experiment: Receptor-mediated [35S]GTPγS binding, δ opioid receptor; format: biochemical
# T1 construct: expressed in transfected cells; host or cells: CHO cells
# T1 sequence (P41143 whole entry): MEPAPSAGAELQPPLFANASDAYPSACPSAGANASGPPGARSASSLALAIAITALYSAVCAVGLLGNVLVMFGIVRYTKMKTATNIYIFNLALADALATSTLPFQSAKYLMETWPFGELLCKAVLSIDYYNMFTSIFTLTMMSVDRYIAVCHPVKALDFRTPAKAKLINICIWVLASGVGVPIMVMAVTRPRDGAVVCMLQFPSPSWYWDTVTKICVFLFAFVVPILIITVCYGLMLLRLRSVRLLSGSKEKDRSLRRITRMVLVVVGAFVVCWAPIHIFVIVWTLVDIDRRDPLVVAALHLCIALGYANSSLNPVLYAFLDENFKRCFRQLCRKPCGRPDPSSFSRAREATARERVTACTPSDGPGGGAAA
# Description: The potency and efficacy of compounds at each of the receptors are assessed by modifications of the methods of Selley et al., 1997 and Traynor and Nahorski, 1995 using receptor-mediated [^35S]GTPγS binding in the same membrane preparations used to measure receptor binding. Assays are carried out in 96-well FlashPlates® (Perkin Elmer Life Sciences, Inc, Boston, Mass.). Membranes prepared from CHO cells expressing the appropriate receptor (50-100 μg of protein) are added to assay mixtures containing agonist with or without antagonists, […] [^35S]GTPγS (approx. 100,000 dpm), 3.0 μM GDP, 75 mM NaCl, 15 mM MgCl2, 1.0 mM ethylene glycol-bis(β-aminoethyl ether)-N,N,N′,N′-tetracetic acid, 1.1 mM dithiothreitol, 10 μg/mL leupeptin, 10 μg/mL pepstatin A, 200 μg/mL bacitracin, and 0.5 μg/mL aprotinin in 50 mM Tris-HCl buffer, pH 7.8. After incubation at room temperature for one hour, the plates are sealed, centrifuged at 800×g in a swinging bucket rotor for 5 minutes and bound radioactivity determined with a TopCount microplate scintillation counter (Packard Instrument Co., Meriden, Conn.).
# EC50 values for agonists are determined from nonlinear regression fits of 8- or 12-point titration curves to the 4-parameter equation for a sigmoidal dose-response with a slope factor of 1.0 using GraphPad Prism version 3.00 for Windows (GraphPad Software, San Diego, Calif.).
# [2] = target: T2, cloned human κ opioid receptor (Homo sapiens, UniProt P41145); experiment: [3H]diprenorphine receptor binding, κ opioid receptor; conditions: δ over κ
# T2 construct: expressed in transfected cells; host or cells: CHO cells
# T2 sequence (P41145 whole entry): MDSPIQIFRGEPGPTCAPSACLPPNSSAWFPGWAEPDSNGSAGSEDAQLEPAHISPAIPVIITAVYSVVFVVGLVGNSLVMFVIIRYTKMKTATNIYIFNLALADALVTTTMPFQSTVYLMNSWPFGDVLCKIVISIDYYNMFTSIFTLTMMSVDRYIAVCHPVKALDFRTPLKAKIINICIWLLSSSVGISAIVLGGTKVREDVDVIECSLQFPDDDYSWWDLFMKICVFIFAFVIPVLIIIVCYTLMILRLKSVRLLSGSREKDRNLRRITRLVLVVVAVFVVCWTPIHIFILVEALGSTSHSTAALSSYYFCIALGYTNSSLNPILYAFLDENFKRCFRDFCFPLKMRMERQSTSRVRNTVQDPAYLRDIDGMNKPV
# Description: (§1) The potencies of the compounds of the Examples were determined by testing the ability of a range of concentrations of each compound to inhibit the binding of the non-selective opioid antagonist, [^3H]diprenorphine, to the cloned human μ, κ, and δ opioid receptors, expressed in separate cell lines. IC50 values were obtained by nonlinear analysis of the data using GraphPad Prism version 3.00 for Windows (GraphPad Software, San Diego). Ki values were obtained by Cheng-Prusoff corrections of IC50 values.
# (§2) The receptor binding method (DeHaven and DeHaven-Hudkins, 1998) was a modification of the method of Raynor et al. (1994). […] The filters were rinsed 4 times with 1 mL of cold 50 mM Tris HCl, pH 7.8 and radioactivity remaining on the filters determined by scintillation spectroscopy. Nonspecific binding was determined by the minimum values of the titration curves and was confirmed by separate assay wells containing 10 μM naloxone. Ki values were determined by Cheng-Prusoff corrections of IC50 values derived from nonlinear regression fits of 12 point titration curves using GraphPad Prism® version 3.00 for Windows (GraphPad Software, San Diego, Calif.).
# (§3) To determine the equilibrium dissociation constant for the inhibitors (Ki), radioligand bound (cpm) in the presence of various concentrations of test compounds was measured. […]
# [3] = target: T1, cloned human δ opioid receptor; experiment: [3H]diprenorphine receptor binding, δ opioid receptor
# Description: as §1, §2, §3
# [4] = target: T3, cloned human μ opioid receptor (Homo sapiens, UniProt P35372); experiment: [3H]diprenorphine receptor binding, μ opioid receptor; conditions: δ over μ
# T3 construct: expressed in transfected cells; host or cells: CHO cells
# T3 sequence (P35372 whole entry): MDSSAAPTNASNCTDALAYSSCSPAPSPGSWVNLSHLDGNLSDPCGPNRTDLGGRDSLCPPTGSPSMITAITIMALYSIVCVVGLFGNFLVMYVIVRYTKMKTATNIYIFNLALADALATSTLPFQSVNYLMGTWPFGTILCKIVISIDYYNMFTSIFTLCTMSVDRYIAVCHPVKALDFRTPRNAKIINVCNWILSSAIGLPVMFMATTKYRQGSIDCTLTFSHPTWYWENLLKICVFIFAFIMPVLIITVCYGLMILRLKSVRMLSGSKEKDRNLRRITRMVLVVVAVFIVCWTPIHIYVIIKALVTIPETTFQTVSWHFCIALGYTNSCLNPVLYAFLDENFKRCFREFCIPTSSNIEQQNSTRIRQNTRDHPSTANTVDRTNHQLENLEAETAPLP
# Description: as §1, §2, §3
smiles,measurement,setting,value
"CC(C)C[C@H](NC(=O)[C@H](Cc1ccccc1)NC(=O)CNC(=O)CNC(=O)[C@@H](N)Cc1ccc(C(N)=O)cc1)C(N)=O [Example 1, H-Cpa-Gly-Gly-Phe-Leu-NH2] (H-[Phe(4-CONH2)]GGFL-NH2)",EC50,[1],74 nM
same,selectivity versus the κ opioid receptor,[2],greater than 10 fold
same,Ki,[3],7 nM
same,selectivity versus the μ opioid receptor,[4],greater than 10 fold
